Consider 11 compounds from patent publication US20130261114A1, “COMPOUNDS USEFUL AS INHIBITORS OF CHOLINE KINASE” (priority 2011, published 2013).

Molecules are shown by their SMILES. Several values for one entry are separate records, joined by “and”; a condition that tells them apart may be missing. Identical values can stand only once.

One may read the IC50 as the concentration needed to halve the response being measured.

For the test, the target named is T1, Choline Kinase alpha enzyme (Homo sapiens, UniProt P35790).
T1 construct: hChoKα1 (M1-V457) (NP_001268); GST (N); made in house; host or cells: E. coli BL21(DE3)
T1 sequence (P35790 whole entry): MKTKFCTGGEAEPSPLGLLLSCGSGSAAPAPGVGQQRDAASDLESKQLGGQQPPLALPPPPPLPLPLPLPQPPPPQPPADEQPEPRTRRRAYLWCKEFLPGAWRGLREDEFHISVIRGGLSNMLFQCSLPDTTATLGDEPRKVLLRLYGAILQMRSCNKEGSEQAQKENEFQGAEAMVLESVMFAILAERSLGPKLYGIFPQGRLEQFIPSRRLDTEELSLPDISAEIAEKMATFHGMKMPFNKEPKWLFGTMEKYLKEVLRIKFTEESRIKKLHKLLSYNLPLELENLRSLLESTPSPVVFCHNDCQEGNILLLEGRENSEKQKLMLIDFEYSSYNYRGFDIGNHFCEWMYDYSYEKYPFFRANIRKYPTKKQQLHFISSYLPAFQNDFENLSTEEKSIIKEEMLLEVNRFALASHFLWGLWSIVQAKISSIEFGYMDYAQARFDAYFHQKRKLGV
In words: Choline Kinase Alpha Inhibition Assay. As to conditions: 20 nM enzyme, 200 μM choline chloride, 400 μM ATP, 25° C., coupled NADH absorbance at 340 nm; read-out: IC50 values (inhibiting Choline Kinase Alpha). Type of test: biochemical. Here is the method:
An assay buffer solution was prepared which consisted of 100 mM Tris-HCl (pH 7.5), 100 mM KCl, and 10 mM MgCl2. An enzyme buffer containing reagents to final assay concentrations of 290 μM NADH, 2.4 mM phosphoenolpyruvate, 60 μg/mL pyruvate kinase, 20 μg/mL lactate dehydrogenase, 200 μM choline chloride substrate and 20 nM Choline Kinase alpha enzyme was prepared in assay buffer. To 32 μL of this enzyme buffer, in a 96 well plate, was added 2 μL of VRT stock solution in DMSO. The mixture was allowed to equilibrate for 10 mins at 25° C. The enzyme reaction was initiated by the addition of 32 μL stock ATP solution prepared in assay buffer to a final assay concentration of 400 μM. Initial rate data was determined from the rate of change of absorbance at 340 nm (corresponding to stoichiometric consumption of NADH) using a Molecular Devices Spectramax plate reader (Sunnyvale, Calif.) over 15 mins at 25° C. For each IC50 determination, 12 data points covering the VRT concentration range of 0-100 μM were obtained in duplicate (DMSO stocks were prepared from an initial 10 mM VRT stock with subsequent 1:2.5 serial dilutions). IC50 values were calculated from initial rate data using the Prism software package (Prism 4.0a, Graphpad Software, San Diego, Calif.).
hChoKα1 (M1-V457) (NP_001268) was codon optimized for E. coli and cloned into a modified pGEX-2T vector. Recombinant GST-tagged ChoKα1 protein was produced in E. coli strain BL21(DE3). After growing cell cultures at 37° C. until the OD600=1, the cultures were induced with 1 mM IPTG for 16 h at 30° C. and the cells were harvested as a pellet (8500 rpm, 4° C., 20 min). The protein was purified using glutathione affinity purification followed by size exclusion via Superdex-200 26/60 (GE Healthcare). See Malito, Enrico et. al., “Journal of Molecular Biology”, Volume 364, Issue 2, pages 136-151 (November 2006).
In the case of `OC(c1ccccc1)(c1ccc(Cl)cc1)C1C[N@]2CC[C@@H]1CC2` (some centres unmarked) [Compound I-86], the IC50 was in the range of 0.1 to 1 µM.
With `CN(C)c1ccc(C(O)(c2ccc(N(C)C)cc2)C2CN3CCC2CC3)cc1` (centres unmarked) [Compound I-79] the figure was 0.1 to 1 µM and 1 to 75 µM; with `OC(c1ccccc1)(c1ccccc1)C1CN2CCC1CC2` (centres unmarked) [Compound I-87], 0.1 to 1 µM; with `OC(c1cccc(Cl)c1)(c1cccc(Cl)c1)C1CN2CCC1CC2` (centres unmarked) [Compound I-82], 1 to 75 µM.
For the compound `Cc1ccccc1C(O)(Cc1ccccc1)C1CN2CCC1CC2` (single isomer, unassigned) [Compound I-84, 1-(o-tolyl)-2-phenyl-1-quinuclidin-3-yl-ethanol], the IC50 lay in the range of 1 to 75 µM.
In the case of `CN(C)c1ccc(CCC(O)(c2ccc(N(C)C)cc2)C2CN3CCC2CC3)cc1` (centres unmarked) [Compound I-17], the IC50 lay in the range of 1 to 75 µM.
Turning to `OC(c1ccc(Cl)s1)(c1ccc(Cl)s1)C1CN2CCC1CC2` (centres unmarked) [Compound I-81], the IC50 was 0.1 to 1 µM.
With `Cc1ccccc1C(O)(Cc1ccccc1)C1CN2CCC1CC2` (single isomer, unassigned) [Compound I-78, 1-(o-tolyl)-2-phenyl-1-quinuclidin-3-yl-ethanol] the figure was below 0.1 µM; with `OC(c1ccccc1)(c1ccccc1Cl)C1C[N@]2CC[C@@H]1CC2` (some centres unmarked) [Compound I-85], 0.1 to 1 µM; with `OC(Cc1ccccc1)(Cc1ccccc1)C1CN2CCC1CC2` (centres unmarked) [Compound I-83], 1 to 75 µM.
With `OC(Cc1ccccc1)(c1ccccc1)C1CN2CCC1CC2` (centres unmarked) [Compound I-80], the IC50 lay within 0.1 to 1 µM.
